Experimental data reported in patent US20170368134A1, “PROTEASOME INHIBITORS FOR TREATING A DISORDER RELATED TO AN ACCUMULATION OF NON-DEGRADED ABNORMAL PROTEIN OR A CANCER” (UNIVERSITÉ D'AIX-MARSEILLE, priority 2015, published 2017).
Peptide text beside a SMILES is read from it. * marks the point of attachment. Cbz = O=C(OCc1ccccc1)*

How the values were obtained:
[1] = test system: lamin A; assay: Intramuscular MG132 in Lmna G609G/G609G mice, lamin A in gastrocnemius muscle; format: in vivo, mouse
Description: (§1) (A) Lamin A, progerin, lamin C and SRSF-1 specific bands, corresponding to DMSO-treated left muscle (−) and 1 μg/Kg MG132-treated right muscle (+), were quantified by ImageJ software and their expression levels were normalized to GAPDH values.
(§2) Knock-in mouse model (Lmna^G609G/G609G) carrying the c.1827C>T (p.Gly609Gly) mutation in the endogenous Lmna gene, corresponding to the human HGPS mutation c.1824C>T (p.Gly609Gly) have been described previously (31). MG132 (1 or 10 μg/Kg body weight) was injected under isoflurane anesthesia into the right gastrocnemius muscle of […] homozygous knock-in mice (Lmna^G609G/G609G) 3 times per week for 2 weeks. Contralateral muscle served as control (DMSO). MG132 was dissolved in dimethyl sulfoxide (DMSO) and then diluted in 100 μl sterile phosphate-buffered saline (PBS) for intramuscular injection. […] Animal experiments have been carried out in compliance with the European guidelines for the care and use of laboratory animals (EU directive 2010/63/EU) and in accordance with the recommendations provided by the guide for the care and use of the laboratory animals of the French national Institute for Health and Medical Research (INSERM) and the ethical committee of Aix-Marseille University.

[2] = test system: Act88F-PABPN1-17ala-expressing flies; assay: Wing posture defects in Drosophila OPMD model; format: in vivo; details: oral in food, from larval stages, Day 3 to Day 11 of adulthood, vs DMSO alone
Description: Drug supplemented food was prepared as follows. Instant Drosophila medium (Carolina Biological Supply Company) was reconstituted in each vial with a solution of 1% yeast in water, supplemented with either increasing concentrations of drug solubilized in DMSO (dimethyl sulfoxide), or DMSO alone. MG132 was purchased from Santa Cruz Biotechnology (SC-201270). Each vial contained 5 ml or 2.5 ml of reconstituted medium, to raise larvae or adults, respectively. Individuals were fed with the drug from larval stages. 70 to 80 first instar larvae were transferred per vial and developed in the same vial up to adulthood; adults were transferred in a new vial with the same concentration of drug. […] Abnormal wing posture was quantified by collecting adult males at birth, pooling five males per vial and scoring abnormal wing position each day by direct observation of the flies through the vials, without anesthesia.
The inventors used the Drosophila model in which PABPN1-17ala is expressed constitutively in adult indirect flight muscles from the Act88F-PABPN1-17ala transgene (90), to assay the effect of MG132 in vivo. […] Wing posture defects were recorded from Day 3 to Day 11 of adulthood. The effect of MG132 was quantified by recording the number of Act88F-PABPN1-17ala-expressing flies with abnormal wing posture.

[3] = test system: progerin; assay: Western blot of progerin levels in HGPS fibroblasts; format: cell-based, human; details: for reduction in progerin amounts: normalized with tubulin, vs DMSO-treated HGPS cells
Description: HGPS fibroblasts (AG01972: person, AG11498: person) were obtained from the Coriell Cell Repository. Cells were cultured in Dulbecco's modified Eagle's medium (Life Technologies) supplemented with 15% fetal bovine serum (Life Technologies), 2 mM L-glutamine (Life Technologies) and 1× penicillin-streptomycin (Life Technologies) at 37° C. in a humidified atmosphere containing 5% CO2. […]
(§3) Total fibroblast proteins were extracted in 200 μL of NP40 Cell Lysis buffer (Invitrogen, Carlsbad, Calif.) containing Protease and Phosphatase Inhibitor Cocktail (Thermo Scientific). Alternatively, cells were lysed with urea (8 M urea, 5 mM dithiothreitol, 150 mM NaCl, 50 mM Tris-Cl pH 7.5, protease and phosphatase Inhibitor Cocktail (Thermo Scientific)). Cells were sonicated twice (30 sec each), incubated at 4° C. for 30 minutes and then centrifuged at 10,000 g for 10 minutes. Protein concentration was evaluated with the bicinchoninic acid technique (Pierce BCA Protein Assay Kit), absorbance at 562 nm is measured using nanodrop 1000 (Thermo Fisher Scientific Inc.) Equal amounts of proteins (40 μg) were loaded onto 10% Tis-Glycine gel (Criterion™ XT precast gel) using XT Tricine running Buffer (Biorad, USA). After electrophoresis, gels were electro transferred onto nitrocellulose membranes or Immobilon-FL polyvinylidene fluoride membranes (Millipore), blocked in Odyssey Blocking Buffer diluted 1:1 in PBS for 1 hour at room temperature, and incubated overnight at 4° C. or 2 hours at room temperature with various primary antibodies. Blots were washed with TBS-T buffer [20 mM tris (pH 7.4), 150 mM NaCl, and 0.05% Tween 20] and incubated with 1:10,000 IR-Dye 800-conjugated secondary donkey anti-goat or IR-Dye 700-conjugated secondary anti-mouse antibodies (LI-COR Biosciences) in Odyssey blocking buffer (LI-COR Biosciences). For IR-Dye 800 and IR-Dye 700 detection, an Odyssey Infrared Imaging System (LI-COR Biosciences) was used. GAPDH, α-tubulin or β-actin were used as a total cellular protein loading control.

[4] = test system: progerin; assay: Immunofluorescence of subcellular progerin localization; format: cell-based, human; details: HGPS cell lines, 48 h MG132 exposure
Description: Cells collected by centrifugation were spread onto polylysine-coated slides by centrifugation (300 rpm for 5 minutes) with a cytospin (Shandon). Cells were then fixed at room temperature for 10 minutes in 2% (w/v) paraformaldehyde in PBS pH 7.2. Slides were stored at −80° C. prior to use. Cells were permeabilized using 100 μL permeabilization buffer (0.5% Triton X-100, 50 mM NaCl, 300 mM sucrose, 20 mM HEPES pH 7.5, 3 mM MgCl2) for 3 minutes at RT. Non-specific antibody binding was blocked with 3% Bovine Serum Albumin in PBS (w/v) (PBS-BSA) for 30 minutes. The permeabilized cells were incubated with the primary antibodies for 3 h at 37° C. After washing, the cells were then incubated with secondary antibodies (A11001, A11058, Life Technologies; 1/400) for 20 minutes at 37° C. Nuclei were stained with DAPI (50 ng/ml) diluted in Vectashield (Abcys) for 10 minutes at RT. Samples were fixed in 4% paraformaldehyde for 5 min. […]
It has been reported that the MG132 can lead to PML-NBs component proteins being translocated into the nucleolus. […] Therefore, nucleolus might function as an alternative sequestration site that immobilizes and temporarily stores accumulated progerin when proteasome-dependent degradation is blocked, as the inventors detected PML and LC3B cytosolic colocalization upon 24 h MG132 treatment (data not shown). […]

[5] = test system: lamin C; assay: Intramuscular MG132 in Lmna G609G/G609G mice, lamin C in gastrocnemius muscle; format: in vivo, mouse
Description: as §1, §2

[6] = test system: SRSF-1; assay: Western blot of SRSF-1 in HGPS fibroblasts; format: cell-based, human; details: 48 h treatment of HGPS fibroblasts with MG132 (10 μM)
Description: as §3

[7] = 1 μg/Kg intramuscular, change not significant
[8] = 10 μg/kg body weight intramuscular

## CC(C)C[C@@H](C=O)NC(=O)[C@H](CC(C)C)NC(=O)[C@H](CC(C)C)NC(=O)OCc1ccccc1 [MG132, Z-Leu-Leu-Leu-al] (Cbz-Leu-Leu-Leu-aldehyde)
[1]; [7]
  lamin A level in treated muscle: small increase in lamin A
[1]; [8]
  lamin A level in treated muscle: remain constant or increase slightly
[2]
  number of flies with abnormal wing posture: significant decrease in the number of flies with abnormal wing posture
[3]; 10 μM MG132, 6 h
  reduction in progerin amounts: 31%
[3]; 10 μM MG132, 24 h
  reduction in progerin amounts: 58%
[3]; 10 μM MG132, 48 h
  reduction in progerin amounts: 65%
[3]; cells solubilized with urea, 72 h of MG132 treatment
  progerin level at longer treatment: progerin reappears after 72 h of treatment
[4]
  subcellular progerin localization: progerin accumulates into autophagic vacuoles
[5]; [7]
  lamin C level in treated muscle: decrease of lamin C
[5]; [8]
  lamin C level in treated muscle: decrease in lamin C
[6]
  SRSF-1 levels: significant decrease of SRSF-1 levels
